Measured values as given in patent US7288555B2 (priority 2001, dated 2007).

Experiments:
[1] = system: potato blight (Phytophthora infestans); format: in vivo; conditions: Solanum tuberosum Bintje, infection 48 h after treatment, read after 6 days, 3 repeats, confidence interval in brackets; for ED50 (confidence interval): effective dose providing 50% control; for ED70 (confidence interval): effective dose providing 70% control; for ED90 (confidence interval): effective dose providing 90% control
[2] = system: vine downy mildew (Plasmopara viticola); conditions: in vivo

SMILES | ED50 (confidence interval) [1] | ED70 (confidence interval) [1] | ED90 (confidence interval) [1] | ED50 (confidence interval) [2] | ED70 (confidence interval) [2]
O=C(NCc1ncc(C(F)(F)F)cc1Cl)c1c(Cl)cccc1Cl [Compound A, 2,6-dichloro-N-{[3-chloro-5-(trifluoromethyl)-2-pyridinyl]methyl}benzamide] | 19.9 (12-33) mg/l | 43.5 (24.5-77.2) mg/l | 151.2 (61.5-371.8) mg/l | 6.6 (4-10.9) mg/l | 12.5 (8-19.6) mg/l
Cc1ccc(C(C)NC(=O)[C@@H](NC(=O)OC(C)C)C(C)C)cc1 (stereo partly shown) [Compound B, iprovalicarb] | 27.8 (18.3-42.2) mg/l | 69.3 (43.7-109.9) mg/l | 296.6 (136.2-646) mg/l | 7.3 (4.9-11) mg/l | 17.5 (11.8-25.9) mg/l
